This passage reports inhibition and IC50 results from patent publication US20150353495A1 (PORTOLA PHARMACEUTICALS, INC., priority 2010, published 2015).

The test system of assay [1] is JAK1/3 signaling to STAT6 in Ramos B cells. Kind of assay: IL4 stimulation of JAK1/3 signaling to STAT6 in Ramos B cells (pSTAT6 Y641, FACS). It is filed as cell-based. The following applies: Homo sapiens; for inhibition at 0.2 µM: 0.2 uM compound, read-out: IL-4/STAT6 in Ramos Percent Inhibition at 0.2 uM; for inhibition at 1 µM: 1.0 uM compound, read-out: IL-4/STAT6 in Ramos Percent Inhibition at 1.0 uM. The procedure:
IL4 stimulation of JAK1/3 signaling to STATE in Ramos B cells:
As an alternative strategy to measure effect of JAK3 inhibitors on JAK1/3 dependent cytokine signaling pathways, IL4 stimulation of the Ramos Burkett's B cell line is used. IL4 engages a receptor consisting of the IL4 receptor alpha chain and the common gamma chain. […] Ramos B cells are suspended in tissue culture media containing 10% fetal calf serum at 10×10̂6 cells/ml. 100 μl aliquots are pre-treated for 1 hour with various concentrations of compound, and then stimulated for 15 minutes with 15 ng IL4. The signaling reaction is terminated by fixing in 2% paraformaldehyde for 10 minutes at room temperature. Fixed cells are then washed and permeablized by suspension in 100% methanol at −80° C. Following overnight incubation at 4° C., cells are washed and resuspended in PBS containing 0.5% bovine serum albumin containing pSTAT6 Y641-PE conjugated antibody. After 1 hour incubation, cells are washed and the extent of STAT6 phosphorlyation in Ramos cells is measured by FACS analysis.

In the next assay the target is T1, JAK1 (Homo sapiens, UniProt P23458).
T1 construct: 5 μl of catalytic domain recombinant Kinase enzyme+Tyr peptide substrate (Invitrogen, CA); purchased Invitrogen
T1 sequence (P23458 875-1153 limits assumed): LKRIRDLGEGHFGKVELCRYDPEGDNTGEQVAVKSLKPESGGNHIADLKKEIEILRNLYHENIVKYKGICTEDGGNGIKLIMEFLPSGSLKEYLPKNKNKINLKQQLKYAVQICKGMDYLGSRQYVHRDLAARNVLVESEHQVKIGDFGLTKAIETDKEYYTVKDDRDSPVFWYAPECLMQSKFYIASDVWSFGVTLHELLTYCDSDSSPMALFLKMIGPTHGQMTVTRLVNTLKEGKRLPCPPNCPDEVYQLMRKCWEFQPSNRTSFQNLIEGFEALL
Kind of assay: Z'-LYTE kinase assay JAK1. In kind it is biochemical. The procedure, abridged:
(§1)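 Catalytic-domain recombinant kinase was incubated with Tyr6 FRET peptide, ATP and compound (1% DMSO final) for 1 h at room temperature. Protease development followed for 1 h, cleaving only non-phosphorylated peptide. Inhibition of phosphorylation was read as coumarin/fluorescein FRET fluorescence.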

A further assay addresses T2, JAK3 (Homo sapiens, UniProt P52333).
T2 construct: 5 μl of catalytic domain recombinant Kinase enzyme+Tyr peptide substrate (Invitrogen, CA); purchased Invitrogen
The assay is described as follows: Z'-LYTE kinase assay JAK3. In kind it is biochemical. In short, it runs like this:
as §1

Another assay has as its target T3, JAK2 (Homo sapiens, UniProt O60674).
T3 construct: 5 μl of catalytic domain recombinant Kinase enzyme+Tyr peptide substrate (Invitrogen, CA); purchased Invitrogen
The assay is described as follows: Z'-LYTE kinase assay JAK2. In kind it is biochemical. In short, it runs like this:
as §1

The structures appear in SMILES notation.

T3 sequence (O60674 849-1124 limits assumed): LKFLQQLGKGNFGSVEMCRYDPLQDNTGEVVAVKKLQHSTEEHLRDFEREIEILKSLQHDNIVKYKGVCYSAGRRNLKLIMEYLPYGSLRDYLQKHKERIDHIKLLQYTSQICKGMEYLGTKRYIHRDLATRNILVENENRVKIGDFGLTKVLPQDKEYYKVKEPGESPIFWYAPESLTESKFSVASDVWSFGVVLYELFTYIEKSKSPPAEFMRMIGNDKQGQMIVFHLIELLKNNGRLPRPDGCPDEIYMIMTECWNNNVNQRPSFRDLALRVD
T2 sequence (P52333 822-1111 limits assumed): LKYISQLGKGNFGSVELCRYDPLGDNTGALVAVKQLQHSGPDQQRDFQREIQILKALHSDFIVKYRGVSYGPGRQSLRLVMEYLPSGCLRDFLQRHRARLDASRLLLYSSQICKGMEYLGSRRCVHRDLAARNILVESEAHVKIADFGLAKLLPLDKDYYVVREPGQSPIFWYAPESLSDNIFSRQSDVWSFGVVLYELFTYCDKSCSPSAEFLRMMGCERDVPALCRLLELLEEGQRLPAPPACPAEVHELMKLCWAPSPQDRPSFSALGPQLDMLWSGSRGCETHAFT

The IC50 is the point on the concentration scale where inhibition reaches its midpoint. Low values mean greater potency, high ones weaker potency. For the compound `NC(=O)c1cnc(Nc2cccc(C3CCN(C4CCCC4)CC3)c2)cc1NCc1ccccc1F` [Example 110, 6-(3-(1-cyclopentylpiperidin-4-yl)phenylamino)-4-(2-fluorobenzylamino)nicotinamide], the inhibition at 0.2 µM in assay [1] was found to be 24%. For the same compound, the inhibition at 1 µM in assay [1] amounted to 68%. Besides, the 50% inhibitory concentration (IC50) lay within 100 to 1000 nM against JAK1, 1 to 10 nM against JAK3 and 10 to 100 nM at JAK2.

On to `COc1ccc(Nc2cc(NCc3c(F)cccc3F)c(C(N)=O)cn2)cc1` [Example 82, 4-(2,6-difluorobenzylamino)-6-(4-methoxyphenylamino)nicotinamide], for which the inhibition at 0.2 µM in assay [1] was found to be 7%. Besides, the inhibition at 1 µM in assay [1] turned out to be 34%. Besides, the IC50 was 100 to 1000 nM at JAK1, 10 to 100 nM at JAK3 and 100 to 1000 nM against JAK2.

Take `COc1ccc(Nc2cc(NCc3cccc(F)c3)c(C(N)=O)cn2)cc1` [Example 91, 4-(3-fluorobenzylamino)-6-(4-methoxyphenylamino)nicotinamide]: the inhibition at 0.2 µM in assay [1] was 6%. Moreover, the inhibition at 1 µM in assay [1] stood at 16%. Moreover, the half-maximal inhibitory concentration (IC50) is above 1000 nM against JAK1, 10 to 100 nM at JAK3 and 100 to 1000 nM against JAK2.

For the compound `CCS(=O)(=O)N1CCC(c2ccc(Nc3cc(NCc4ccccc4F)c(C(N)=O)cn3)cc2)CC1` [Example 112, 6-(4-(1-(ethylsulfonyl)piperidin-4-yl)phenylamino)-4-(2-fluorobenzylamino)nicotinamide], the inhibition at 0.2 µM in assay [1] amounted to 8%. Besides, the inhibition at 1 µM in assay [1] came out at 42%. In addition, the IC50 at JAK1 was above 1000 nM; against JAK3, 10 to 100 nM; against JAK2, above 1000 nM.

Regarding `CC(C)N1CCC(c2ccc(Nc3cc(NCc4ccccc4F)c(C(N)=O)cn3)cc2)CC1` [Example 108, 4-(2-fluorobenzylamino)-6-(4-(1-isopropylpiperidin-4-yl)phenylamino)nicotinamide], the inhibition at 0.2 µM in assay [1] was determined as 14%. Moreover, in assay [1], the inhibition at 1 µM is 37%. Besides, the half-inhibitory concentration (IC50) at JAK1 fell in the range of 100 to 1000 nM; on JAK3 it was 1 to 10 nM; against JAK2, 10 to 100 nM.

Turning to `CC(=O)N1CCN(c2ccc(Nc3cc(NC(CO)c4ccccc4)c(C(N)=O)cn3)cc2)CC1` (stereo not shown) [Example 231], in assay [1], the inhibition at 0.2 µM worked out at 13% and the inhibition at 1 µM is 16%.

Turning to `NC(=O)c1cnc(Nc2cccc(NC(=O)N3CCOCC3)c2)cc1NCc1cccnc1` [Example 232], in assay [1], the inhibition at 0.2 µM was found to be 4% and the inhibition at 1 µM came out at 5%.

Regarding `NC(=O)c1cnc(Nc2cccc(OCCN3CCOCC3)c2)cc1NC(CO)c1ccccc1` (stereo not shown) [Example 230], in assay [1], the inhibition at 0.2 µM is 21% and the inhibition at 1 µM was 36%.

As for `CN(C)C(=O)N1CC(c2ccc(Nc3cc(NCc4ccccc4)c(C(N)=O)cn3)cc2)C1` [Example 337, 4-(benzylamino)-6-(4-(1-(dimethylcarbamoyl)azetidin-3-yl)phenylamino)nicotinamide], the figures for the IC50 against JAK1, at JAK3 and on JAK2 were 100 to 1000 nM, 1 to 10 nM and 100 to 1000 nM, respectively.

Take `CC(C)[C@H](C)Nc1cc(Nc2ccc(C3CCOCC3)cc2)ncc1C(N)=O` [Example 186, (S)-4-(3-methylbutan-2-ylamino)-6-(4-(tetrahydro-2H-pyran-4-yl)phenylamino)nicotinamide]: the figures for the IC50 on JAK1, against JAK3 and at JAK2 were 100 to 1000 nM, 10 to 100 nM and 100 to 1000 nM, respectively.

With `CCC(=O)N1CCC(c2ccc(Nc3cc(N[C@H](C)C(C)C)c(C(N)=O)cn3)cc2)CC1` [Example 189, (R)-4-(3-methylbutan-2-ylamino)-6-(4-(1-propionylpiperidin-4-yl)phenylamino)nicotinamide], the concentration for half-maximal inhibition (IC50) lay within 10 to 100 nM against JAK1, 1 to 10 nM against JAK3 and 10 to 100 nM against JAK2.

As to `NC(=O)c1cnc(Nc2cccc(C3CCOCC3)c2)cc1NCc1ccccc1F` [Example 152, 4-(2-fluorobenzylamino)-6-(3-(tetrahydro-2H-pyran-4-yl)phenylamino)nicotinamide], the IC50 against JAK1 lay within 100 to 1000 nM; against JAK3, 1 to 10 nM; on JAK2, 10 to 100 nM.

For `NC(=O)c1cnc(Nc2ccc3ncsc3c2)cc1NCc1ccccc1` [Example 90, 6-(benzo[d]thiazol-6-ylamino)-4-(benzylamino)nicotinamide], the IC50 against JAK1 is above 1000 nM; on JAK3, 10 to 100 nM; on JAK2, above 1000 nM.

In the case of `Cc1cc(Nc2cc(NCc3cccc4ccsc34)c(C(N)=O)cn2)ccc1C(=O)N1CCOCC1` [Example 459, 4-(benzo[b]thiophen-7-ylmethylamino)-6-(3-methyl-4-(morpholine-4-carbonyl)phenylamino)nicotinamide], the IC50 against JAK1 is 100 to 1000 nM; at JAK3, 1 to 10 nM; against JAK2, 10 to 100 nM.

Regarding `COCC(=O)N1CCC[C@@H](CNc2cc(Nc3ccc(OC)cc3)ncc2C(N)=O)C1` [Example 51, (S)-4-((1-(2-methoxyacetyl)piperidin-3-yl)methylamino)-6-(4-methoxyphenylamino)nicotinamide], the IC50 against JAK1 is above 1000 nM; against JAK3 it was 100 to 1000 nM; against JAK2, above 1000 nM.

Consider `CN(C(=O)C1CC1)c1ccc(Nc2cc(NCc3cccc4[nH]ccc34)c(C(N)=O)cn2)cc1` [Example 476, 4-((1H-indol-4-yl)methylamino)-6-(4-(N-methylcyclopropanecarboxamido)phenylamino)nicotinamide], for which the values for the IC50 on JAK1, at JAK3 and on JAK2 were 10 to 100 nM, 1 to 10 nM and 10 to 100 nM, respectively.

Consider `COc1ccc(Nc2cc(NC[C@H]3CCCN(C(=O)N(C)C)C3)c(C(N)=O)cn2)cc1` [Example 291, (R)-4-((1-(dimethylcarbamoyl)piperidin-3-yl)methylamino)-6-(4-methoxyphenylamino)nicotinamide], for which the figures for the IC50 at JAK1, against JAK3 and against JAK2 were above 1000 nM, 100 to 1000 nM and above 1000 nM, respectively.

Consider `COc1ccc(Nc2cc(NCc3cccc4cc[nH]c34)c(C(N)=O)cn2)cc1` [Example 282, 4-((1H-indol-7-yl)methylamino)-6-(4-methoxyphenylamino)nicotinamide], for which the half-inhibitory concentration (IC50) against JAK1 is above 1000 nM; against JAK3, 10 to 100 nM; at JAK2, above 1000 nM.

In the case of `CN(C(=O)C1CC1)c1ccc(Nc2cc(NCc3cccc4cc[nH]c34)c(C(N)=O)cn2)cc1` [Example 478, 4-((1H-indol-7-yl)methylamino)-6-(4-(N-methylcyclopropanecarboxamido)phenylamino)nicotinamide], the values for the IC50 on JAK1, against JAK3 and against JAK2 were above 1000 nM, 100 to 1000 nM and 100 to 1000 nM, respectively.

With `COCC(=O)N1CC(c2ccc(Nc3cc(NCc4cccc5[nH]ccc45)c(C(N)=O)cn3)cc2)C1` [Example 494, 4-((1H-indol-4-yl)methylamino)-6-(4-(1-(2-methoxyacetyl)azetidin-3-yl)phenylamino)nicotinamide], the 50% inhibitory concentration (IC50) at JAK1 is 1 to 10 nM; against JAK3, below 1 nM; at JAK2, 1 to 10 nM.

Take `NC(=O)c1cnc(Nc2ccc(-n3cccn3)cc2)cc1NCc1ccccc1` [Example 277, 6-(4-(1H-pyrazol-1-yl)phenylamino)-4-(benzylamino)nicotinamide]: the half-inhibitory concentration (IC50) was above 1000 nM at JAK1, 10 to 100 nM against JAK3 and above 1000 nM on JAK2.

For `CC(=O)N1CC(c2ccc(Nc3cc(NCc4cncc(F)c4)c(C(N)=O)cn3)cc2)C1` [Example 334, 6-(4-(1-acetylazetidin-3-yl)phenylamino)-4-((5-fluoropyridin-3-yl)methylamino)nicotinamide], the concentration for half-maximal inhibition (IC50) on JAK1 is 100 to 1000 nM; at JAK3, 10 to 100 nM; against JAK2, 100 to 1000 nM.

`CN(C)C(=O)c1ccc(Nc2cc(NCC3CCCC3)c(C(N)=O)cn2)cc1` [Example 96, 4-(cyclopentylmethylamino)-6-(4-(dimethylcarbamoyl)phenylamino)nicotinamide]: the half-inhibitory concentration (IC50) against JAK1 was 100 to 1000 nM; against JAK3, 10 to 100 nM; on JAK2, 100 to 1000 nM.

As for `CN(C)C(=O)NCc1ccc(Nc2cc(NCc3cccc4ccsc34)c(C(N)=O)cn2)cc1` [Example 354, 4-(benzo[b]thiophen-7-ylmethylamino)-6-(4-((3,3-dimethylureido)methyl)phenylamino)nicotinamide], the concentration for half-maximal inhibition (IC50) against JAK1 was 100 to 1000 nM; at JAK3, 1 to 10 nM; against JAK2, 10 to 100 nM.

Regarding `CN(C)S(=O)(=O)NCc1ccc(Nc2cc(NCc3cccc4ccsc34)c(C(N)=O)cn2)cc1` [Example 355, 4-(benzo[b]thiophen-7-ylmethylamino)-6-(4-((N,N-dimethylsulfamoylamino)methyl)phenylamino)nicotinamide], the IC50 fell in the range of 100 to 1000 nM on JAK1, 1 to 10 nM against JAK3 and 100 to 1000 nM against JAK2.
